# Tests used:
# Assay in all cases: relative viability (nuclei count vs DMSO), 5 days (fraction); higher = more cells survive
# [1] = tested on: HOP-62
# Summary of the method: (§1)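 Lung cancer cell lines in 1536-well plates were dosed by pin tool the day after seeding, either with one drug alone or with a fixed anchor-drug dose plus five library-drug doses (not always all listed) in √10 steps. After 5 days, cells were fixed and their nuclei stained in one step (final 0.05% Triton X-100, 1% formaldehyde, 1 ug/ml Hoechst), then counted on 4× images. Relative viability is the nuclei count in treated wells divided by that in vehicle wells. Values are medians of duplicate plates.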
# [2] = tested on: NCI-H647
# Summary of the method: as §1
# [3] = tested on: LOU-NH91
# Summary of the method: as §1
# [4] = tested on: NCI-H460
# Summary of the method: as §1
# [5] = tested on: RERF-LC-KJ
# Summary of the method: as §1
# [6] = tested on: NCI-H1755
# Summary of the method: as §1
# [7] = tested on: NCI-H1734
# Summary of the method: as §1
# [8] = tested on: NCI-H1915
# Summary of the method: as §1
# [9] = tested on: SW 1573
# Summary of the method: as §1
# [10] = tested on: A-427
# Summary of the method: as §1
# [11] = tested on: NCI-H1792
# Summary of the method: as §1
# [12] = tested on: LC-2-ad
# Summary of the method: as §1
# [13] = tested on: PC-3 [JPC-3]
# Summary of the method: as §1
# [14] = tested on: HCC-78
# Summary of the method: as §1
# [15] = tested on: NCI-H2126
# Summary of the method: as §1
# [16] = tested on: HCC-15
# Summary of the method: as §1
# [17] = tested on: NCI-H1975
# Summary of the method: as §1
# [18] = tested on: LXF-289
# Summary of the method: as §1
# [19] = tested on: SK-LU-1
# Summary of the method: as §1
# [20] = tested on: NCI-H358
# Summary of the method: as §1
# [21] = tested on: NCI-H2228
# Summary of the method: as §1
# [22] = tested on: NCI-H2347
# Summary of the method: as §1
compound,measurement,setting,value
NC(=O)Nc1cc(-c2cccc(F)c2)sc1C(=O)N[C@H]1CCCNC1 [AZD7762] + C[C@@H](Oc1cc(-c2cnn(C3CCNCC3)c2)cnc1N)c1c(Cl)ccc(F)c1Cl [Crizotinib] (partner 1 µM),relative viability,[1]; first compound 0.01 µM,0.786
same,relative viability,[1]; first compound 0.03162 µM,1.03
same,relative viability,[1]; first compound 0.1 µM,1.17
same,relative viability,[1]; first compound 0.3162 µM,1.1
same,relative viability,[1]; first compound 1 µM,1.16
same,relative viability,[2]; first compound 0.01 µM,1.15
same,relative viability,[2]; first compound 0.03162 µM,1.11
same,relative viability,[2]; first compound 0.1 µM,0.941
same,relative viability,[2]; first compound 0.3162 µM,0.546
same,relative viability,[2]; first compound 1 µM,0.105
same,relative viability,[3]; first compound 0.01 µM,0.764
same,relative viability,[3]; first compound 0.03162 µM,0.731
same,relative viability,[3]; first compound 0.1 µM,0.746
same,relative viability,[3]; first compound 0.3162 µM,0.76
same,relative viability,[3]; first compound 1 µM,0.546
same,relative viability,[4]; first compound 0.01 µM,1.13
same,relative viability,[4]; first compound 0.03162 µM,0.879
same,relative viability,[4]; first compound 0.1 µM,0.758
same,relative viability,[4]; first compound 0.3162 µM,0.593
same,relative viability,[4]; first compound 1 µM,0.0457
same,relative viability,[5]; first compound 0.01 µM,0.897
same,relative viability,[5]; first compound 0.03162 µM,0.894
same,relative viability,[5]; first compound 0.1 µM,0.777
same,relative viability,[5]; first compound 0.3162 µM,0.809
same,relative viability,[5]; first compound 1 µM,0.742
same,relative viability,[6]; first compound 0.01 µM,0.901
same,relative viability,[6]; first compound 0.03162 µM,0.872
same,relative viability,[6]; first compound 0.1 µM,0.929
same,relative viability,[6]; first compound 0.3162 µM,0.853
same,relative viability,[6]; first compound 1 µM,0.508
same,relative viability,[7]; first compound 0.01 µM,0.837
same,relative viability,[7]; first compound 0.03162 µM,0.676
same,relative viability,[7]; first compound 0.1 µM,0.869
same,relative viability,[7]; first compound 0.3162 µM,0.612
same,relative viability,[7]; first compound 1 µM,0.458
same,relative viability,[8]; first compound 0.01 µM,0.93
same,relative viability,[8]; first compound 0.03162 µM,0.919
same,relative viability,[8]; first compound 0.1 µM,0.891
same,relative viability,[8]; first compound 0.3162 µM,0.944
same,relative viability,[8]; first compound 1 µM,0.823
same,relative viability,[9]; first compound 0.01 µM,0.976
same,relative viability,[9]; first compound 0.03162 µM,0.879
same,relative viability,[9]; first compound 0.1 µM,0.907
same,relative viability,[9]; first compound 0.3162 µM,0.934
same,relative viability,[9]; first compound 1 µM,0.738
same,relative viability,[10]; first compound 0.01 µM,1.01
same,relative viability,[10]; first compound 0.03162 µM,0.869
same,relative viability,[10]; first compound 0.1 µM,0.992
same,relative viability,[10]; first compound 0.3162 µM,0.815
same,relative viability,[10]; first compound 1 µM,0.386
same,relative viability,[11]; first compound 0.01 µM,1.06
same,relative viability,[11]; first compound 0.03162 µM,1
same,relative viability,[11]; first compound 0.1 µM,0.975
same,relative viability,[11]; first compound 0.3162 µM,0.646
same,relative viability,[11]; first compound 1 µM,1.12
same,relative viability,[12]; first compound 0.01 µM,0.551
same,relative viability,[12]; first compound 0.03162 µM,0.483
same,relative viability,[12]; first compound 0.1 µM,0.52
same,relative viability,[12]; first compound 0.3162 µM,0.522
same,relative viability,[12]; first compound 1 µM,0.295
same,relative viability,[13]; first compound 0.01 µM,0.999
same,relative viability,[13]; first compound 0.03162 µM,0.962
same,relative viability,[13]; first compound 0.1 µM,1.01
same,relative viability,[13]; first compound 0.3162 µM,1.02
same,relative viability,[13]; first compound 1 µM,0.903
same,relative viability,[14]; first compound 0.01 µM,0.364
same,relative viability,[14]; first compound 0.03162 µM,0.35
same,relative viability,[14]; first compound 0.1 µM,0.317
same,relative viability,[14]; first compound 0.3162 µM,0.326
same,relative viability,[14]; first compound 1 µM,0.255
same,relative viability,[15]; first compound 0.01 µM,1.01
same,relative viability,[15]; first compound 0.03162 µM,1.01
same,relative viability,[15]; first compound 0.1 µM,1.12
same,relative viability,[15]; first compound 0.3162 µM,1.04
same,relative viability,[15]; first compound 1 µM,1.05
same,relative viability,[16]; first compound 0.01 µM,0.948
same,relative viability,[16]; first compound 0.03162 µM,0.776
same,relative viability,[16]; first compound 0.1 µM,0.818
same,relative viability,[16]; first compound 0.3162 µM,0.774
same,relative viability,[16]; first compound 1 µM,0.825
same,relative viability,[17]; first compound 0.01 µM,1.06
same,relative viability,[17]; first compound 0.03162 µM,0.937
same,relative viability,[17]; first compound 0.1 µM,0.837
same,relative viability,[17]; first compound 0.3162 µM,0.903
same,relative viability,[17]; first compound 1 µM,0.638
same,relative viability,[18]; first compound 0.01 µM,0.788
same,relative viability,[18]; first compound 0.03162 µM,0.8
same,relative viability,[18]; first compound 0.1 µM,0.828
same,relative viability,[18]; first compound 0.3162 µM,0.864
same,relative viability,[18]; first compound 1 µM,0.816
same,relative viability,[19]; first compound 0.01 µM,0.991
same,relative viability,[19]; first compound 0.03162 µM,0.714
same,relative viability,[19]; first compound 0.1 µM,0.38
same,relative viability,[19]; first compound 0.3162 µM,0.226
same,relative viability,[19]; first compound 1 µM,0.285
same,relative viability,[20]; first compound 0.01 µM,0.743
same,relative viability,[20]; first compound 0.03162 µM,0.695
same,relative viability,[20]; first compound 0.1 µM,0.581
same,relative viability,[20]; first compound 0.3162 µM,0.521
same,relative viability,[20]; first compound 1 µM,0.202
same,relative viability,[21]; first compound 0.01 µM,0.423
same,relative viability,[21]; first compound 0.03162 µM,0.588
same,relative viability,[21]; first compound 0.1 µM,0.461
same,relative viability,[21]; first compound 0.3162 µM,0.436
same,relative viability,[21]; first compound 1 µM,0.208
same,relative viability,[22]; first compound 0.01 µM,1.01
same,relative viability,[22]; first compound 0.03162 µM,0.918
same,relative viability,[22]; first compound 0.1 µM,0.734
same,relative viability,[22]; first compound 0.3162 µM,0.928
same,relative viability,[22]; first compound 1 µM,0.67

# Reference: the supplement of paper PMC10307832
